Assays:
C2C12 cells = assay: Immunocytochemical analysis of TGF-β1-stimulated C2C12 myoblasts; type: cell-based, mouse; conditions: low or high concentration halofuginone after TGF-β1 stimulation (FIG. 4c)
Protocol: Specifically, C2C12 cells were plated in 6-well plates with coverslips and stimulated with rhTGF-β1 in serum-free medium. After 24 hours of stimulation, the cells were treated with low or high concentrations of halofuginone in serum-free medium for 24 hours. The cells were washed three times with PBS and fixed in 4% paraformaldehyde at room temperature for 15 minutes. The fixed cells were then washed three times with PBS and treated with 0.5% Triton X-100 for 5 minutes. Subsequently, they were blocked with 5% bovine serum albumin in 0.3% PBS-T for 1 hour at room temperature. The cells were incubated with anti-α-SMA antibody (1:200; abcam cat #ab7817) and anti-MyoD antibody (1:200; Santa Cruz, cat #sc377460) in blocking buffer at 4° C. for 24 hours. After washing three times with PBS, the cells were incubated with Alexa Fluor secondary antibodies at room temperature for 1 hour. Nuclear DNA was stained with DAPI (4,6-diamino-2-phenylindole, 1:1,000; Sigma), washed twice with PBS, and coverslips were mounted on glass slides using a Dako fluorescence mounting medium (Dako). […] In addition, it was quantified in a blind manner using Leica Application Suite X software (Leica Microsystems). […]

[1] = test system: G93A mutant SOD1 mouse-derived fibroblasts; assay: Real-time qRT-PCR analysis of ALS animal model-derived fibroblasts; type: cell-based; conditions: low or high concentration halofuginone for 24 hours; elevation vs Non-TG fibroblasts (FIG. 5a)
Source text: Specifically, primary fibroblasts were isolated from skeletal muscle of 120-day-old non-transformed or G93A mutant SOD1 transgenic mice of Example 4. The excised tissue was placed on 100-mm culture dishes containing HBSS (Hanks' Balanced Salt Solution; Gibco, cat #14175095) and penicillin-streptomycin (Cat #15070-063, Thermo Fisher Scientific) without calcium and magnesium. Muscle tissue was cut on ice blocks. Then, the tissue was cut into 1 mm pieces and enzymatically reacted with 0.2% IV type collagenase (Sigma) at 37° C. for 1 hour. The enzymatic reaction was stopped by the addition of 10 ml of FBS (Gibco). […]
Specifically, total RNA was isolated from C2C12 cells in Example 1, fibroblasts in Example 5, and the lumbar spinal cord of mice in Example 6 using the FavorPrep™ Tri-RNA Reagent (Favorgen). […] The concentration of total RNA was measured at 260 nm absorbance using a spectrophotometer (NanoDrop Spectrophotometer ND-2000, Thermo Scientific). cDNA was synthesized from 1 μg of total RNA using the ReverTra Ace-α™ (Toyobo) according to the manufacturers protocol. Quantitative RT-PCR was performed using the SYBR Green ExcelTaq™ 2× Fast Q-PCR Master Mix (TQ1200, Smobio) on a thermocycler (CFX Connect Real-Time PCR Detection System, BIO-RAD) with the primers listed in Table 3 below. […]

Compound: O=C(C[C@H]1NCCC[C@@H]1O)Cn1cnc2cc(Br)c(Cl)cc2c1=O (racemic) [halofuginone]
- intensity of MyoD (immunofluorescence) (C2C12 cells): recovery
- intensity of α-SMA (immunofluorescence) (C2C12 cells): reduction
- elevated mRNA level of TGF-β, α-SMA and Col-I [1]: attenuated
